[1] = oral 1.3 mg/kg BID 14 days versus IT 0.25 mg/hour 5 days, higher in oral

Excerpt: Animals were then sacrificed and a necropsy was immediately performed.
After stopping the 5-day treatment, animals were sacrificed and a necropsy was immediately performed. […] One hour after stopping the 14-day treatment, animals were sacrificed and a necropsy was immediately performed.
Animals were then sacrificed and a necropsy was immediately performed. […] Animals were then sacrificed and a necropsy was immediately performed.

riluzole accumulation in the spinal cord, IT-treated compared to oral-treated dogs (IT 0.25 mg/hour 5 days versus oral 1.3 mg/kg BID 14 days, higher in IT): approximately 4 fold | riluzole level in CSF, oral-treated compared to IT-treated dogs (oral 1.3 mg/kg BID 14 days versus IT 0.25 mg/hour 5 days): similar | riluzole level in plasma, oral-treated compared to IT-treated dogs [1]: approximately 20 fold | riluzole level in urine, oral-treated compared to IT-treated dogs [1]: approximately 3 fold
Structure (SMILES): Nc1nc2ccc(OC(F)(F)F)cc2s1 [Riluzole, 2-Amino-6-(trifluoromethoxy)benzothiazole]

Source: patent publication US10322114B2 (Above and Beyond NB LLC, priority 2017, dated 2019)
